According to ChEMBL document CHEMBL4819081 (Eur J Med Chem, 2021):

How the values were obtained:
MDA-MB-231 [1] = assay: Induction of cell cycle arrest in human MDA-MB-231 cells assessed as accumulation at S phase at 0.375 uM after 12 hrs by propidium iodide staining-based flow cytometric analysis (reference value: 21.11%); type: functional
[2] = target: CDK6/cyclin D3 (Homo sapiens) (UniProt P30281+Q00534); assay: Inhibition of CDK6/Cyclin D3 (unknown origin) at 20 nM using ATP by mobility shift assay; type: protein-complex assay
MDA-MB-231 [3] = assay: Antitumor activity against human MDA-MB-231 cells xenografted in BALB/c mouse assessed as tumor growth inhibition at 80 mg/kg, po measured every 3 days for 21 days; type: functional; conditions: MDA-MB-231, po, 504 h, time 21 day, read-out: TGI
[4] = target: Cyclin-dependent kinase 4/cyclin D1 (Homo sapiens) (UniProt P11802+P24385); assay: Inhibition of CDK4/Cyclin D1 (unknown origin) at 20 nM using ATP by mobility shift assay; type: protein-complex assay
MDA-MB-231 [5] = assay: Induction of cell cycle arrest in human MDA-MB-231 cells assessed as accumulation at S phase at 0.375 uM after 12 hrs by propidium iodide staining-based flow cytometric analysis (reference value: 23.71%); type: functional
L02 = assay: Cytotoxicity against human L02 cells measured upto 20 uM after 72 hrs by MTT assay; type: cell-based; conditions: l02, 72 h
[6] = Toxicity in BALB/c mouse xenografted with human MDA-MB-231 cells assessed as body weight change at 40 to 80 mg/kg, po measured every 3 days for 21 days; type: organism-based; conditions: in vivo, 72 h, dose 40-80 mg/kg, time 3 day
MDA-MB-231 [7] = assay: Induction of cell cycle arrest in human MDA-MB-231 cells assessed as accumulation at S phase at 0.1875 uM after 12 hrs by propidium iodide staining-based flow cytometric analysis (reference value: 23.71%); type: functional
MDA-MB-231 [8] = assay: Induction of cell cycle arrest in human MDA-MB-231 cells assessed as accumulation at S phase at 1.5 uM after 12 hrs by propidium iodide staining-based flow cytometric analysis (reference value: 23.71%); type: functional
CDK7/Cyclin H/MNAT1 = CDK7/Cyclin H/MNAT1 (Homo sapiens, UniProt P50613); assay: Inhibition of CDK7/cyclin H/MAT1 (unknown origin); type: protein-complex assay
CDK7/Cyclin H/MNAT1, sequence (P51946 whole entry): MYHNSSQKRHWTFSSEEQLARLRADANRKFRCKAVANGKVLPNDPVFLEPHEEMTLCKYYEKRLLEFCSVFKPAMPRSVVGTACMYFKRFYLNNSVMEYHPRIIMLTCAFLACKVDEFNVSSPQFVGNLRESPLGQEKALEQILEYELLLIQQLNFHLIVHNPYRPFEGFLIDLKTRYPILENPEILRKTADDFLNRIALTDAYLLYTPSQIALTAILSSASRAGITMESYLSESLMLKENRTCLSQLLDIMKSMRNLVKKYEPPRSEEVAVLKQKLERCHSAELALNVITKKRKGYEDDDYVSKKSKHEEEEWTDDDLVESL
CDK7/Cyclin H/MNAT1, sequence (P50613 whole entry): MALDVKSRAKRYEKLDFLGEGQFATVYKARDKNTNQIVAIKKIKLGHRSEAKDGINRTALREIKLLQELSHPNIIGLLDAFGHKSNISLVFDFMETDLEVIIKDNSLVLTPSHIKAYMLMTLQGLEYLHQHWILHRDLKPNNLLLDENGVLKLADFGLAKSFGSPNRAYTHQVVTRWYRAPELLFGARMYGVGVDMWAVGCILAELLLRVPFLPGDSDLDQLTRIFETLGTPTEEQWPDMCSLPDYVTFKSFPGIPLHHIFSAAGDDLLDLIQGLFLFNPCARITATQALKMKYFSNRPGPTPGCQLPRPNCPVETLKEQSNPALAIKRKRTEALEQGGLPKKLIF
CDK7/Cyclin H/MNAT1, sequence (P51948 whole entry, further chain): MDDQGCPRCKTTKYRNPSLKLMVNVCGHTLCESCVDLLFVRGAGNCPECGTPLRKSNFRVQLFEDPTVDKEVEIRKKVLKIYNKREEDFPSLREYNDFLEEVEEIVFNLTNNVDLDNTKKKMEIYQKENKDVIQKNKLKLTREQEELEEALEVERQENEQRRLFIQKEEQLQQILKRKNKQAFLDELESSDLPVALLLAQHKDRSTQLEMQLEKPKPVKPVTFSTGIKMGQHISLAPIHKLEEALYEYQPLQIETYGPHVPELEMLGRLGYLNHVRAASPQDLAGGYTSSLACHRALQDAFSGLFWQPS

MDA-MB-231 [9] = assay: Induction of cell cycle arrest in human MDA-MB-231 cells assessed as accumulation at G2 phase at 0.75 uM after 12 hrs by propidium iodide staining-based flow cytometric analysis (reference value: 21.11%); type: functional
MDA-MB-231 [10] = assay: Induction of cell cycle arrest in human MDA-MB-231 cells assessed as accumulation at G1 phase at 0.1875 uM after 12 hrs by propidium iodide staining-based flow cytometric analysis (reference value: 53.11%); type: functional
MDA-MB-231 [11] = assay: Antitumor activity against human MDA-MB-231 cells xenografted in po dosed BALB/c mouse assessed as reduction in tumor weight measured every 3 days for 21 days; type: functional, organism-based; conditions: dose 40-80 mg/kg, time […]
MDA-MB-453 = assay: Potency index, ratio of IC50 for Palbociclib to IC50 for test compound for antiproliferative activity against human MDA-MB-453 cells assessed as reduction in cell viability after 72 hrs by MTT assay; type: functional
NCI-H1299 = assay: Potency index, ratio of IC50 for Palbociclib to IC50 for test compound for antiproliferative activity against human H1299 cells assessed as reduction in cell viability after 72 hrs by MTT assay; type: functional

- inhibition [2]: 81.6%
- inhibition [4]: 61.7%
- IC50 (CDK7/Cyclin H/MNAT1): > 3.33 µM
Structure (SMILES): CC(=O)c1c(C)c2cnc(Nc3ccc(N4CCN(C(=O)CCl)CC4)cn3)nc2n(C2CCCC2)c1=O
- Activity (MDA-MB-231 [1]): 14.99%
- inhibition in vivo at 80 mg/kg (MDA-MB-231 [3]): 105%
- Activity (MDA-MB-231 [5]): 15.36%
- Activity (L02): Non-Toxic
- Activity [6]: Non-Toxic
- Activity (MDA-MB-231 [7]): 15.55%
- Activity (MDA-MB-231 [8]): 7.55%
- Activity (MDA-MB-231 [9]): 16.49%
- Activity (MDA-MB-231 [10]): 68.04%
- inhibition (MDA-MB-231 [11]): Dose-Dependent Effect
- Ratio IC50 (MDA-MB-453): 40
- Ratio IC50 (NCI-H1299): 4
